Some results are limits rather than exact numbers.

The first assay has as its system σ1 receptor and the μ-opiod receptor. Kind of assay: μ and σ1 dual binding: combined class from the Ki of both radioligand assays. To be noted: combined class for Ki-μ and Ki-σ1; transfected HEK-293 membranes (σ1), transfected CHO-K1 cell membranes (μ). Set-up: species or system human; key to μ and σ1 dual binding: +: Both Ki-μ and Ki-σ1>=500 nM; ++: One Ki<500 nM while the other Ki is >=500 nM; +++: Both Ki-μ and Ki-σ1<500 nM; ++++: Both Ki-μ and Ki-σ1<100 nM. The protocol: To investigate binding properties of σ1 receptor ligands to human σ1 receptor, transfected HEK-293 membranes and [^3H](+)-pentazocine (Perkin Elmer, NET-1056), as the radioligand, were used. The assay was carried out with 7 μg of membrane suspension, 5 nM of [^3H](+)-pentazocine in either absence or presence of either buffer or 10 μM Haloperidol for total and non-specific binding, respectively. Binding buffer contained Tris-HCl 50 mM at pH 8. Plates were incubated at 37° C. for 120 minutes. After the incubation period, the reaction mix was then transferred to MultiScreen HTS, FC plates (Millipore), filtered and plates were washed 3 times with ice-cold 10 mM Tris-HCL (pH7.4). Filters were dried and counted at approximately 40% efficiency in a MicroBeta scintillation counter (Perkin-Elmer) using EcoScint liquid scintillation cocktail
To investigate binding properties of mu-opioid receptor ligands to human μ-opioid receptor, transfected CHO-K1 cell membranes and [^3H]-DAMGO (Perkin Elmer, ES-542-C), as the radioligand, were used. The assay was carried out with 20 μg of membrane suspension, 1 nM of [^3H]-DAMGO in either absence or presence of either buffer or 10 μM Naloxone for total and non-specific binding, respectively. Binding buffer contained Tris-HCl 50 mM, MgCl2 5 mM at pH 7.4. Plates were incubated at 27° C. for 60 minutes. After the incubation period, the reaction mix was then transferred to MultiScreen HTS, FC plates (Millipore), filtered and plates were washed 3 times with ice-cold 10 mM Tris-HCL (pH 7.4). Filters were dried and counted at approximately 40% efficiency in a MicroBeta scintillation counter (Perkin-Elmer) using EcoScint liquid scintillation cocktail.
The following scale as been adopted for representing the binding to the σ1 receptor and the μ-opiod receptor expressed as Ki: • + Both Ki-μ and Ki-σ1>=500 nM • ++ One Ki<500 nM while the other Ki is >=500 nM • +++ Both Ki-μ and Ki-σ1<500 nM • ++++ Both Ki-μ and Ki-σ1<100 nM
`Oc1cccc(C2CCN(Cc3cn([C@@H]4CCC[C@H]4O)nn3)CC2)c1` (racemic) [Example 5, (±)-(trans)-3-(1-((1-(2-hydroxycyclopentyl)-1H-1,2,3-triazol-4-yl)methyl)piperidin-4-yl)phenol]: the “μ and σ1 dual binding” value is recorded as “++”. On the same count and under the same terms, then `CS(=O)(=O)Nc1cccc(C2CCN(Cc3cn([C@@H]4c5ccccc5C[C@H]4O)nn3)CC2)c1` (racemic) [Example 70, (±)-(trans)-N-(3-(1-((1-(2-hydroxy-2,3-dihydro-1H-inden-1-yl)-1H-1,2,3-triazol-4-yl)methyl)piperidin-4-yl)phenyl)methanesulfonamide], with “++”; and `CC(C)S(=O)(=O)Nc1cccc([C@H]2CCN(Cc3cn(-c4ccccc4)nn3)C[C@H]2O)c1` (racemic) [Example 127, N-(3-((3S,4R)-3-hydroxy-1-((1-phenyl-1H-1,2,3-triazol-4-yl)methyl)piperidin-4-yl)phenyl)propane-2-sulfonamide], with “++”.

With `c1ccc(-n2cc(CN3CCC(c4cccc5[nH]cnc45)CC3)nn2)cc1` [Example 11, 4-(1-((1-phenyl-1H-1,2,3-triazol-4-yl)methyl)piperidin-4-yl)-1H-benzo[d]imidazole], the “μ and σ1 dual binding” value is recorded as “++”. On to `Oc1ccc(C(F)(F)F)c(C2CCN(Cc3cn(-c4ccccc4)nn3)CC2)c1` [Example 12, 3-(1-((1-phenyl-1H-1,2,3-triazol-4-yl)methyl)piperidin-4-yl)-4-(trifluoromethyl)phenol], for which the “μ and σ1 dual binding” value is listed as “++”. On the same count and under the same terms, then `O=c1[nH]c2cccc(C3CCN(Cc4cn(-c5ccccc5)nn4)CC3)c2[nH]1` [Example 13, 4-(1-((1-phenyl-1H-1,2,3-triazol-4-yl)methyl)piperidin-4-yl)-1H-benzo[d]imidazol-2(3H)-one], with “++”; and `CNS(=O)(=O)c1cccc(C2CCN(Cc3cn(-c4ccccc4)nn3)CC2)c1` [Example 17, N-methyl-3-(1-((1-phenyl-1H-1,2,3-triazol-4-yl)methyl)piperidin-4-yl)benzenesulfonamide], with “++”. In the case of `CS(=O)(=O)Nc1ccc(C(F)(F)F)c(C2CCN(Cc3cn(-c4ccccc4)nn3)CC2)c1` [Example 20, N-(3-(1-((1-phenyl-1H-1,2,3-triazol-4-yl)methyl)piperidin-4-yl)-4-(trifluoromethyl)phenyl)methanesulfonamide], the “μ and σ1 dual binding” value was “++”. As for `c1ccc(-n2cc(CN3CCC(c4ccc5cn[nH]c5c4)CC3)nn2)cc1` [Example 26, 6-(1-((1-phenyl-1H-1,2,3-triazol-4-yl)methyl)piperidin-4-yl)-1H-indazole], the “μ and σ1 dual binding” value was “++”.

Staying with this assay, now noted: transfected HEK-293 membranes (σ1), transfected CHO-K1 cell membranes (μ).
For the compound `CC(C)S(=O)(=O)Nc1cccc([C@@H]2CCN(Cc3cn(-c4ccccc4)nn3)C[C@@H]2O)c1` (racemic) [Example 115, N-(3-((3R,4S)-3-hydroxy-1-((1-phenyl-1H-1,2,3-triazol-4-yl)methyl)piperidin-4-yl)phenyl)propane-2-sulfonamide], the Ki range for both μ and σ1 (dual-binding class) is under 0.5 µM. In the case of `OC[C@@H](c1ccccc1)n1cc(CN2CCC(c3cccc(O)c3)CC2)nn1` (stereo in doubt) [Example 149, (R)-3-(1-((1-(2-hydroxy-1-phenylethyl)-1H-1,2,3-triazol-4-yl)methyl)piperidin-4-yl)phenol], the Ki range for both μ and σ1 (dual-binding class) was under 0.5 µM.

As for `OC[C@H](c1ccccc1)n1cc(CN2CCC(c3cccc(O)c3)CC2)nn1` (stereo in doubt) [Example 150, (S)-3-(1-((1-(2-hydroxy-1-phenylethyl)-1H-1,2,3-triazol-4-yl)methyl)piperidin-4-yl)phenol], the Ki range for both μ and σ1 (dual-binding class) is under 0.5 µM. Still for that read-out and setting: for `CC(C)S(=O)(=O)Nc1cccc(C2CCN(Cc3cn(-c4ccccc4)nn3)CC2)c1` [Example 1, N-(3-(1-((1-phenyl-1H-1,2,3-triazol-4-yl)methyl)piperidin-4-yl)phenyl)propane-2-sulfonamide] the value was under 0.1 µM; for `Oc1cccc(C2CCN(Cc3cn(-c4ccccc4)nn3)CC2)c1` [Example 2, 3-(1-((1-phenyl-1H-1,2,3-triazol-4-yl)methyl)piperidin-4-yl)phenol], under 0.1 µM; for `CCCn1cc(CN2CCC(c3cccc(O)c3)CC2)nn1` [Example 3, 3-(1-((1-propyl-1H-1,2,3-triazol-4-yl)methyl)piperidin-4-yl)phenol], under 0.5 µM.

On to `Oc1cccc(C2CCN(Cc3cn(Cc4ccccc4F)nn3)CC2)c1` [Example 4, 3-(1-((1-(2-fluorobenzyl)-1H-1,2,3-triazol-4-yl)methyl)piperidin-4-yl)phenol], for which the Ki range for both μ and σ1 (dual-binding class) is under 0.1 µM. The same measure, in the same setting: then `NC(=O)c1cccc(C2CCN(Cc3cn(-c4ccccc4)nn3)CC2)c1` [Example 6, 3-(1-((1-phenyl-1H-1,2,3-triazol-4-yl)methyl)piperidin-4-yl)benzamide], with under 0.5 µM; and `CCC(=O)Nc1cccc(C2CCN(Cc3cn(-c4ccccc4)nn3)CC2)c1` [Example 7, N-(3-(1-((1-phenyl-1H-1,2,3-triazol-4-yl)methyl)piperidin-4-yl)phenyl)propionamide], with under 0.5 µM. With `Oc1cccc(C2CCN(Cc3cn(Cc4ccccc4)nn3)CC2)c1` [Example 8, 3-(1-((1-benzyl-1H-1,2,3-triazol-4-yl)methyl)piperidin-4-yl)phenol], the Ki range for both μ and σ1 (dual-binding class) is under 0.1 µM. On the same count and under the same terms, for `CC(=O)Nc1cccc(C2CCN(Cc3cn(-c4ccccc4)nn3)CC2)c1` [Example 9, N-(3-(1-((1-phenyl-1H-1,2,3-triazol-4-yl)methyl)piperidin-4-yl)phenyl)acetamide] the value was under 0.5 µM; for `Oc1cccc(C2CCN(Cc3cn(-c4cccnc4)nn3)CC2)c1` [Example 10, 3-(1-((1-(pyridin-3-yl)-1H-1,2,3-triazol-4-yl)methyl)piperidin-4-yl)phenol], under 0.5 µM; for `Oc1cccc(C2CCN(Cc3cn(-c4ccncc4)nn3)CC2)c1` [Example 14, 3-(1-((1-(pyridin-4-yl)-1H-1,2,3-triazol-4-yl)methyl)piperidin-4-yl)phenol], under 0.5 µM. With `Oc1cccc(C2CCN(Cc3cn([C@@H]4c5ccccc5C[C@H]4O)nn3)CC2)c1` [Example 15, (1R,2R)-1-(4-((4-(3-hydroxyphenyl)piperidin-1-yl)methyl)-1H-1,2,3-triazol-1-yl)-2,3-dihydro-1H-inden-2-ol], the Ki range for both μ and σ1 (dual-binding class) is under 0.5 µM. The same measure, in the same setting: then `CS(=O)(=O)Nc1cccc(C2CCN(Cc3cn(-c4ccc(F)cc4)nn3)CC2)c1` [Example 16, N-(3-(1-((1-(4-fluorophenyl)-1H-1,2,3-triazol-4-yl)methyl)piperidin-4-yl)phenyl)methanesulfonamide], with under 0.5 µM. Turning to `CS(=O)(=O)Nc1ccc(F)c(C2CCN(Cc3cn(-c4ccccc4)nn3)CC2)c1` [Example 18, N-(4-fluoro-3-(1-((1-phenyl-1H-1,2,3-triazol-4-yl)methyl)piperidin-4-yl)phenyl)methanesulfonamide], the Ki range for both μ and σ1 (dual-binding class) is under 0.1 µM. On to `Oc1cccc(C2CCN(Cc3cn(C4CCCCC4)nn3)CC2)c1` [Example 19, 3-(1-((1-cyclohexyl-1H-1,2,3-triazol-4-yl)methyl)piperidin-4-yl)phenol], for which the Ki range for both μ and σ1 (dual-binding class) is under 0.1 µM.

Consider `c1ccc(-n2cc(CN3CCC(c4ccc5nc[nH]c5c4)CC3)nn2)cc1` [Example 21, 6-(1-((1-phenyl-1H-1,2,3-triazol-4-yl)methyl)piperidin-4-yl)-1H-benzo[d]imidazole], for which the Ki range for both μ and σ1 (dual-binding class) is under 0.5 µM.

As for `CS(=O)(=O)Nc1cccc(C2CCN(Cc3cn(C4CCCCC4)nn3)CC2)c1` [Example 22, N-(3-(1-((1-cyclohexyl-1H-1,2,3-triazol-4-yl)methyl)piperidin-4-yl)phenyl)methanesulfonamide], the Ki range for both μ and σ1 (dual-binding class) is under 0.5 µM. As for `CC(C)n1cc(CN2CCC(c3cccc(O)c3)CC2)nn1` [Example 23, 3-(1-((1-isopropyl-1H-1,2,3-triazol-4-yl)methyl)piperidin-4-yl)phenol], the Ki range for both μ and σ1 (dual-binding class) is under 0.5 µM. For the compound `CC(C)Cn1cc(CN2CCC(c3cccc(O)c3)CC2)nn1` [Example 25, 3-(1-((1-isobutyl-1H-1,2,3-triazol-4-yl)methyl)piperidin-4-yl)phenol], the Ki range for both μ and σ1 (dual-binding class) is under 0.1 µM.
